# In patent US20230127944A1, “BROAD-SPECTRUM CARBAPENEMS” (priority 2019, published 2023):
# Key:
# Format in all cases: cell-based
# [1] = system: S. aureus ATCC 33591 (methicillin-resistant); assay: broth microdilution MIC assay, S. aureus 33591; details: Staphylococcus aureus, ATCC33591; S. aureus 33591, methicillin-resistant; read-out: MIC, S. aureus 33591
# Procedure, shortened: (§1)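 Steps: ≥5 colonies into cation-supplemented MH broth, shaken 3-5 h at 37° C; OD600-adjusted inoculum added to 2-fold compound dilutions (5×10^5 CFU/mL final); 16-20 h incubation at 37° C; visual MIC endpoint (no growth).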
# P. aeruginosa Paeβ-17 = assay: broth microdilution MIC assay, P. aeruginosa Paeβ-17; details: Pseudomonas aeruginosa, read-out: MIC, P. aeruginosa Paeβ-17
# Procedure, shortened: as §1
# [2] = system: P. aeruginosa 35151 (hyper-permeable strain); assay: broth microdilution MIC assay, P. aeruginosa 35151; details: Pseudomonas aeruginosa, read-out: MIC, P. aeruginosa 35151
# Procedure, shortened: as §1
# [3] = system: P. aeruginosa ΔmexAB-OprM (an efflux pump knockout); assay: broth microdilution MIC assay, P. aeruginosa ΔmexAB-OprM; details: Pseudomonas aeruginosa, read-out: MIC, P. aeruginosa ΔmexAB-OprM
# Procedure, shortened: as §1
# S. aureus USA 600 = assay: broth microdilution MIC assay, S. aureus USA600; details: Staphylococcus aureus; S. aureus USA600 (MRSA); read-out: MIC, S. aureus USA600
# Procedure, shortened: as §1
# [4] = system: P. aeruginosa ATCC 27853 (wild-type/QC strain); assay: broth microdilution MIC assay, P. aeruginosa 27853; details: Pseudomonas aeruginosa, ATCC27853; read-out: MIC, P. aeruginosa 27853
# Procedure, shortened: as §1
# S. aureus USA 300 = assay: broth microdilution MIC assay, S. aureus USA300; details: Staphylococcus aureus; S. aureus USA300 (MRSA); read-out: MIC, S. aureus USA300
# Procedure, shortened: as §1
# [5] = system: E. coli ATCC 25922 (wild-type/QC strain); assay: broth microdilution MIC assay, E. coli 25922; details: Escherichia coli, ATCC25922; read-out: MIC, E. coli 25922
# Procedure, shortened: as §1
SMILES,MIC [1],MIC (P. aeruginosa Paeβ-17),MIC [2],MIC [3],MIC (S. aureus USA 600),MIC [4],MIC (S. aureus USA 300),MIC [5]
"C[C@@H](O)[C@H]1C(=O)N2C(C(=O)O)=C(S[C@H]3C[C@H](N[C@H]4CC[C@H](NC(=N)N)CC4)C3)[C@H](C)[C@H]12 [Example 68, (4R,5S,6S)-3-(((1R,3R)-3-(((1R,4R)-4-guanidinocyclohexyl)amino)cyclobutyl)thio)-6-((R)-1-hydroxyethyl)-4-methyl-7-oxo-1-azabicyclo[3.2.0]hept-2-ene-2-carboxylic acid]",8 to 32 µg/mL,8 to 32 µg/mL,< 1 µg/mL,1 to 4 µg/mL,1 to 4 µg/mL,8 to 32 µg/mL,1 to 4 µg/mL,< 1 µg/mL
"C[C@@H](O)[C@H]1C(=O)N2C(C(=O)O)=C(S[C@H]3C[C@H](N[C@H]4CC[C@@H](NC(=N)N)CC4)C3)[C@H](C)[C@H]12 [Example 69, (4R,5S,6S)-3-(((1R,3R)-3-(((1S,4S)-4-guanidinocyclohexyl)amino)cyclobutyl)thio)-6-((R)-1-hydroxyethyl)-4-methyl-7-oxo-1-azabicyclo[3.2.0]hept-2-ene-2-carboxylic acid]",8 to 32 µg/mL,8 to 32 µg/mL,< 1 µg/mL,1 to 4 µg/mL,1 to 4 µg/mL,8 to 32 µg/mL,1 to 4 µg/mL,< 1 µg/mL
"C[C@@H](O)[C@H]1C(=O)N2C(C(=O)O)=C(S[C@H]3C[C@H](N[C@@H]4CC[C@H](N)C4)C3)[C@H](C)[C@H]12 [Example 70, (4R,5S,6S)-3-(((1R,3R)-3-(((1R,3S)-3-aminocyclopentyl)amino)cyclobutyl)thio)-6-((R)-1-hydroxyethyl)-4-methyl-7-oxo-1-azabicyclo[3.2.0]hept-2-ene-2-carboxylic acid]",8 to 32 µg/mL,8 to 32 µg/mL,< 1 µg/mL,1 to 4 µg/mL,1 to 4 µg/mL,8 to 32 µg/mL,8 to 32 µg/mL,< 1 µg/mL
"C[C@@H](O)[C@H]1C(=O)N2C(C(=O)O)=C(S[C@H]3C[C@H](N[C@@H]4CC[C@@H](N)C4)C3)[C@H](C)[C@H]12 [Example 71, (4R,5S,6S)-3-(((1R,3R)-3-(((1R,3R)-3-aminocyclopentyl)amino)cyclobutyl)thio)-6-((R)-1-hydroxyethyl)-4-methyl-7-oxo-1-azabicyclo[3.2.0]hept-2-ene-2-carboxylic acid]",8 to 32 µg/mL,8 to 32 µg/mL,< 1 µg/mL,1 to 4 µg/mL,1 to 4 µg/mL,8 to 32 µg/mL,1 to 4 µg/mL,< 1 µg/mL
"C[C@@H](O)[C@H]1C(=O)N2C(C(=O)O)=C(S[C@@H]3CCN(C[C@H]4CC[C@@H](N)CC4)C3)[C@H](C)[C@H]12 [Example 72, (4R,5S,6S)-3-(((R)-1-(((1S,4S)-4-aminocyclohexyl)methyl)pyrrolidin-3-yl)thio)-6-((R)-1-hydroxyethyl)-4-methyl-7-oxo-1-azabicyclo[3.2.0]hept-2-ene-2-carboxylic acid]",8 to 32 µg/mL,1 to 4 µg/mL,< 1 µg/mL,8 to 32 µg/mL,1 to 4 µg/mL,1 to 4 µg/mL,1 to 4 µg/mL,< 1 µg/mL
"C[C@@H](O)[C@H]1C(=O)N2C(C(=O)O)=C(S[C@H]3C[C@H](N[C@H]4CC[C@H](NC(=N)N)C4)C3)[C@H](C)[C@H]12 [Example 73, (4R,5S,6S)-3-(((1S,3R)-3-(((1S,3S)-3-guanidinocyclopentyl)amino)cyclobutyl)thio)-6-((R)-1-hydroxyethyl)-4-methyl-7-oxo-1-azabicyclo[3.2.0]hept-2-ene-2-carboxylic acid]",8 to 32 µg/mL,1 to 4 µg/mL,< 1 µg/mL,8 to 32 µg/mL,1 to 4 µg/mL,1 to 4 µg/mL,1 to 4 µg/mL,< 1 µg/mL
"C[C@@H](O)[C@H]1C(=O)N2C(C(=O)O)=C(S[C@H]3C[C@H](N[C@H]4CC[C@@H](N)C4)C3)[C@H](C)[C@H]12 [Example 74, (4R,5S,6S)-3-(((1S,3R)-3-(((1S,3R)-3-aminocyclopentyl)amino)cyclobutyl)thio)-6-((R)-1-hydroxyethyl)-4-methyl-7-oxo-1-azabicyclo[3.2.0]hept-2-ene-2-carboxylic acid]",8 to 32 µg/mL,1 to 4 µg/mL,< 1 µg/mL,8 to 32 µg/mL,1 to 4 µg/mL,8 to 32 µg/mL,8 to 32 µg/mL,< 1 µg/mL
"C[C@@H](O)[C@H]1C(=O)N2C(C(=O)O)=C(S[C@H]3C[C@@H](N[C@H]4CC[C@H](N)C4)C3)[C@H](C)[C@H]12 [Example 75, (4R,5S,6S)-3-(((1R,3S)-3-(((1S,3S)-3-aminocyclopentyl)amino)cyclobutyl)thio)-6-((R)-1-hydroxyethyl)-4-methyl-7-oxo-1-azabicyclo[3.2.0]hept-2-ene-2-carboxylic acid]",8 to 32 µg/mL,1 to 4 µg/mL,< 1 µg/mL,8 to 32 µg/mL,1 to 4 µg/mL,1 to 4 µg/mL,1 to 4 µg/mL,< 1 µg/mL
"C[C@@H](O)[C@H]1C(=O)N2C(C(=O)O)=C(S[C@H]3C[C@@H](N[C@H]4CC[C@@H](N)C4)C3)[C@H](C)[C@H]12 [Example 76, (4R,5S,6S)-3-(((1R,3S)-3-(((1S,3R)-3-aminocyclopentyl)amino)cyclobutyl)thio)-6-((R)-1-hydroxyethyl)-4-methyl-7-oxo-1-azabicyclo[3.2.0]hept-2-ene-2-carboxylic acid]",8 to 32 µg/mL,1 to 4 µg/mL,< 1 µg/mL,8 to 32 µg/mL,1 to 4 µg/mL,1 to 4 µg/mL,1 to 4 µg/mL,< 1 µg/mL
"C[C@@H](O)[C@H]1C(=O)N2C(C(=O)O)=C(S[C@H]3C[C@@H](N[C@@H]4CC[C@H](N)C4)C3)[C@H](C)[C@H]12 [Example 77, (4R,5S,6S)-3-(((1S,3S)-3-(((1R,3S)-3-aminocyclopentyl)amino)cyclobutyl)thio)-6-((R)-1-hydroxyethyl)-4-methyl-7-oxo-1-azabicyclo[3.2.0]hept-2-ene-2-carboxylic acid]",8 to 32 µg/mL,1 to 4 µg/mL,< 1 µg/mL,8 to 32 µg/mL,1 to 4 µg/mL,1 to 4 µg/mL,1 to 4 µg/mL,< 1 µg/mL
"C[C@@H](O)[C@H]1C(=O)N2C(C(=O)O)=C(S[C@H]3C[C@@H](N[C@@H]4CC[C@@H](N)C4)C3)[C@H](C)[C@H]12 [Example 78, (4R,5S,6S)-3-(((1S,3S)-3-(((1R,3R)-3-aminocyclopentyl)amino)cyclobutyl)thio)-6-((R)-1-hydroxyethyl)-4-methyl-7-oxo-1-azabicyclo[3.2.0]hept-2-ene-2-carboxylic acid]",8 to 32 µg/mL,1 to 4 µg/mL,< 1 µg/mL,8 to 32 µg/mL,1 to 4 µg/mL,1 to 4 µg/mL,1 to 4 µg/mL,< 1 µg/mL
"C[C@@H](O)[C@H]1C(=O)N2C(C(=O)O)=C(S[C@H]3C[C@H](N[C@@H]4CC[C@H](NC(=N)N)C4)C3)[C@H](C)[C@H]12 [Example 79, (4R,5S,6S)-3-(((1R,3R)-3-(((1R,3S)-3-guanidinocyclopentyl)amino)cyclobutyl)thio)-6-((R)-1-hydroxyethyl)-4-methyl-7-oxo-1-azabicyclo[3.2.0]hept-2-ene-2-carboxylic acid]",8 to 32 µg/mL,1 to 4 µg/mL,< 1 µg/mL,8 to 32 µg/mL,1 to 4 µg/mL,1 to 4 µg/mL,1 to 4 µg/mL,< 1 µg/mL
